Experimental data taken from patent US12344612B2, “Bicyclic ketone compounds and methods of use thereof” (Genentech, Inc., priority 2019, dated 2025).

Target: human RIP1 kinase domain (2-375) (Homo sapiens (Human), UniProt Q13546)
Test: RIP1 kinase inhibition biochemical assay (Transcreener ADP, fluorescence polarization)
Conditions: apparent Ki (Morrison tight-binding fit); 50 nM enzyme, 50 μM ATP, 2 hours incubation
Procedure: RIP1 Kinase Inhibition Assays (Biochemical Assay)
The compounds of the present invention were tested for their capacity to inhibit RIP1K activity as described below.
The ability of the receptor interacting protein kinase (RIPK1) to catalyze the hydrolysis of adenosine-5′-triphosphate (ATP) is monitored using the Transcreener ADP (adenosine-5′-diphosphate) assay (BellBrook Labs). Purified human RIP1 kinase domain (2-375) (50 nM) derived from a baculovirus-infected insect cell expression system is incubated with test compounds for 2 hours in 50 mM Hepes buffer (pH 7.5) containing 30 mM MgCl2, 1 mM dithiothreitol, 50 μM ATP, 0.002% Brij-35, and 0.5% dimethyl sulfoxide (DMSO). Reactions are quenched by the addition of 1× Bell Brooks Stop buffer B (20 mM Hepes (ph7.5), 40 mM ethylenediaminetetraacetic acid and 0.02% Brij-35) containing an additional 12 mM EDTA and 55 ug/mL ADP2 antibody and 4 nM ADP-AlexaFluor® 633 tracer. The tracer bound to the antibody is displaced by the ADP generated during the RIP1K reaction, which causes a decrease in fluorescence polarization that is measured by laser excitation at 633 nm with a FP microplate reader M1000. Fractional activity was plotted against test article concentration. Using Genedata Screener software (Genedata; Basel, Switzerland), the data were fit to the tight-binding apparent inhibition constant (Ki^app) Morrison equation [Williams, J. W. and Morrison, J. F. (1979) The kinetics of reversible tight-binding inhibition. Methods Enzymol 63: 437-67]. The following equation was used to calculate fractional activity and Ki^app:
[formula] where [E]T and [I]T are the total concentrations of active enzyme and test article, respectively.
Exemplary compounds of the present invention are provided in Table 1 along with their physiochemical characterization and in vitro RIP1 kinase inhibitory activity data. “Method” in the first column of each table refers to the synthetic method(s) used to prepare each compound as shown in the Examples above.

Chain of human RIP1 kinase domain (2-375) (Q13546 2-375): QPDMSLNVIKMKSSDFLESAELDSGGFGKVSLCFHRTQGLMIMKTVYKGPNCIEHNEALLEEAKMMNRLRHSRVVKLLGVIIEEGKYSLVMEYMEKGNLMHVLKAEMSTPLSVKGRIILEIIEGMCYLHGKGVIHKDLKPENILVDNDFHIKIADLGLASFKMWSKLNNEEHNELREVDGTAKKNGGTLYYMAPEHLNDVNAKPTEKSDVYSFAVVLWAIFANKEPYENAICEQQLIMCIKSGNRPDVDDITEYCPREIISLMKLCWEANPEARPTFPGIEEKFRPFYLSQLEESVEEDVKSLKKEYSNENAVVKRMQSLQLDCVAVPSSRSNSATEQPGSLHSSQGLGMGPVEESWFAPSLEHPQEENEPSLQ

| SMILES | Ki |
| --- | --- |
| O=C(c1nc2n(n1)[C@H](c1cncc(F)c1)C[C@@H]2F)C1CC1 (single isomer, unassigned) [Example 1] | 9 nM |
| O=C(c1nc2n(n1)[C@@H](c1cncc(F)c1)C[C@H]2F)C1CC1 (single isomer, unassigned) [Example 2] | > 10000 nM |
| CCC(=O)c1nc2n(n1)[C@H](c1cnn(C)c1)C[C@@H]2F (single isomer, unassigned) [Example 6] | 25 nM |
| N#Cc1cccc([C@@H]2C[C@H](F)c3nc(C(=O)C4CC4)nn32)c1 (single isomer, unassigned) [Example 8] | 28 nM |
| O=C(c1nc2n(n1)[C@H](c1cccc(Cl)c1)C[C@@H]2F)C1CC1 (single isomer, unassigned) [Example 9] | 6.5 nM |

Continued, values first:

| Ki | SMILES |
| --- | --- |
| 84 nM | CC1(C)OCC2CC21C(=O)c1nc2n(n1)[C@H](c1ccccc1)C[C@@H]2F (mixture of isomers) [Example 3, (2,2-dimethyl-3-oxabicyclo[3.1.0]hexan-1-yl)-[rac-(5S,7S)-7-fluoro-5-phenyl-6,7-dihydro-5H-pyrrolo[1,2-b][1,2,4]triazol-2-yl]methanone] |
| 130 nM | CC(=O)N1CC(C(=O)c2nc3n(n2)[C@H](c2ccccc2)C[C@@H]3F)C1 (single isomer, unassigned) [Example 7] |
| 31 nM | CC(C)(CO)C(=O)c1nc2n(n1)[C@H](c1ccccc1)C[C@@H]2F [Example 4, 3-hydroxy-2,2-dimethyl-1-((5S,7S)-7-fluoro-5-phenyl-6,7-dihydro-5H-pyrrolo[1,2-b][1,2,4]triazol-2-yl)propan-1-one] |
| < 5 nM | CC(C)(COC(F)F)C(=O)c1nc2n(n1)[C@H](c1ccccc1)C[C@@H]2F [Example 5, 3-(difluoromethoxy)-2,2-dimethyl-1-((5S,7S)-7-fluoro-5-phenyl-6,7-dihydro-5H-pyrrolo[1,2-b][1,2,4]triazol-2-yl)propan-1-one] |
